Measured values taken from patent US20260159474A1, “Aminoindane Compounds and Compositions and Methods of Their Therapeutic Use” (Solvonis Therapeutics Ireland Holdings Limited, priority 2021, published 2026).
Like-named read-outs stand apart in the source and are kept apart here.

Key:
Assay in all cases: CYP450 inhibition, fluorescent probe substrate
Type in all cases: in vitro ADME
CYP1A2 = target: T1, CYP1A2 (Homo sapiens, UniProt P05177)
T1 construct: host or cells: recombinant microsomes
T1 sequence (P05177 1-516): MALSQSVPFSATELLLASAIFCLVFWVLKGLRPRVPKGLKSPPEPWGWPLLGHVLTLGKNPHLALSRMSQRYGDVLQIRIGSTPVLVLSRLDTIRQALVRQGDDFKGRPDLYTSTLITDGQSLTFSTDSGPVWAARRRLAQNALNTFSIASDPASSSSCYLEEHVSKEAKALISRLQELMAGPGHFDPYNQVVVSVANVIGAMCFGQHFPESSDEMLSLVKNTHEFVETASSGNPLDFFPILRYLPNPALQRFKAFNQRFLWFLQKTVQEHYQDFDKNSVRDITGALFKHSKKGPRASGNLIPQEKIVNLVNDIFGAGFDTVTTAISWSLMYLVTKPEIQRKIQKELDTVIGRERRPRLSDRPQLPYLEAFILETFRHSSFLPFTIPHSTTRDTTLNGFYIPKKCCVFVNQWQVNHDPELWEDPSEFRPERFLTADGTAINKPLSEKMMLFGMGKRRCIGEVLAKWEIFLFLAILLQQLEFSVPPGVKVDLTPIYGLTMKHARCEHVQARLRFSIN
Protocol: (§1) Methods: Recombinant human CYP450 isoenzymes were used to metabolize pro-fluorescent probe substrates to fluorescent products. IC50 values determined from the effect of test compounds on the metabolism of these probe substrates were then used to determine inhibitory potency against CYP450 isoforms. The chemical reagents included:
(§2) The test system was based on a three-step procedure with a “mix and read” format, where reaction and reading were performed at 37° C. The assays described herein measure in vitro inhibitory effects (pIC50) of compounds on the human P450 isoforms (1A2, 2B6, 2C8, 2C9, 2C19, 2D6, 3A4) expressed in recombinant microsomes. Pro-fluorescent probe substrates were metabolized to fluorescent products by the enzymes. Fluorescence was measured in kinetic mode (1 read/minutes for 10 minutes), and the fluorescence rate was calculated.
(§3) Inhibition of the fluorescent signal resulting from P450 activation indicated inhibitory activity and facilitated calculation of the compound pIC50. A quality check was included in each compound plate, wherein the signal window was monitored by performing Z′ calculations ([…] ) and the antagonist potency of internal standards was within the pIC50±2SD range. Concentration response curves (CRCs) of compounds were run on two different test occasions (n 2) by preparing serial dilutions from the same compound stock solution.
(§4) To prepare the compound plate, test compounds serial dilutions 1 to 3 were performed from a 10 mM stock solution in DMSO by Biomek FX to generate 10 point CRC with the highest concentrations in columns 3 and 13.
(§5) 100% DMSO was placed in columns 1 and 2 and used for assay low controls. CYP inhibitor (10 mM miconazole solution in DMSO) was placed in columns 23 and 24 and served as an assay high controls. 1 μL copy plates were then stamped into V-bottom drug plates at a concentration that is 200 fold the final assay concentration. The copy plates were diluted prior to the experiment with assay buffer to reach 4 times the final assay concentration (2% w/v DMSO).
(§6) A reference compound (e.g., miconazole) was included in each compound plate in row A, column 3 and 13. The reference compound was diluted and stamped together with test compounds. The final concentrations of the 10 point CRCs of test compounds in the assay plate were 5.00E-05; 1.67E-05; 5.56E-06; 1.85E-06; 6.17E-07; 2.06E-07; 6.86E-08; 2.29E-08; 7.62E-09 and 2.54E-09, respectively. All solutions were prepared immediately before the assay.
(§7) Microsomes were added to the buffer prior to the substrate addition. The solution was carefully mixed without vortexing. 30 μL/well of the mixture was then transferred to the assay plate (384-well black plate) using a 16-channel pipette. For each P450 isoformn, a separate plate was prepared and labeled with a barcode. For fluorescence measurement, 10 μL/well of the test compounds were transferred from the compound plate to the assay plate using Biomek FX and the appropriate protocol. The assay plate was then incubated at 37° C. for 10 minutes on a shaker to allow for the interaction between compounds and enzymes.
(§8) 10 μL/well of the cofactor was then added to the assay plate using the Multidrop before placing the assay plate in the plate reader EnVision to measure fluorescence. The overall final DMSO concentration for the assay was 0.5%. Plates were read every minute for 10 minutes, according to a P450 isoform specific protocol, as shown below.
(§9) Regarding data analysis, inhibition is expressed as a percentage. […] Curve fitting and pIC50 estimations are carried out using a four-parameter logistic model in Morphit.

CYP2C19 = target: T2, CYP2C19 (Homo sapiens, UniProt P33261)
T2 construct: host or cells: recombinant microsomes
Protocol: as §1, §2, §3, §4, §5, §6, §7, §8, §9

CYP2C9 = target: T3, CYP2C9 (Homo sapiens, UniProt P11712)
T3 construct: host or cells: recombinant microsomes
Protocol: as §1, §2, §3, §4, §5, §6, §7, §8, §9

[1] = recombinant human isoenzyme, n=2
[2] = recombinant human isoenzyme, n=2, read-out: Inhibition of CYP1A2, IC50
[3] = recombinant human isoenzyme, n=2, read-out: Inhibition of CYP2C19, IC50
[4] = recombinant human isoenzyme, n=2, read-out: Inhibition of CYP2C9, IC50

T3 sequence (P11712 whole entry): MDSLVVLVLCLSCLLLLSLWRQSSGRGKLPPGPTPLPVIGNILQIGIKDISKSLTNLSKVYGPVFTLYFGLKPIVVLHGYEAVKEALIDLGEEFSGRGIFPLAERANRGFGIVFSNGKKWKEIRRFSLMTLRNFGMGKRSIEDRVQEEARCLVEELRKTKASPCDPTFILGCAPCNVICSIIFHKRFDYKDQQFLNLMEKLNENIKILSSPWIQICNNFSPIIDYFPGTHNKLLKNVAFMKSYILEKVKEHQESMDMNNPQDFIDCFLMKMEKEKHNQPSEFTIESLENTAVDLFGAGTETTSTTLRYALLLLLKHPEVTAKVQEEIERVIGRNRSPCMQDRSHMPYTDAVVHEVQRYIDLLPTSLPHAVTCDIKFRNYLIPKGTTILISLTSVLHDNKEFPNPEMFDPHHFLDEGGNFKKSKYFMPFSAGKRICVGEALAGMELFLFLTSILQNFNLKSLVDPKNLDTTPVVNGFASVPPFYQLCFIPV
T2 sequence (P33261 whole entry): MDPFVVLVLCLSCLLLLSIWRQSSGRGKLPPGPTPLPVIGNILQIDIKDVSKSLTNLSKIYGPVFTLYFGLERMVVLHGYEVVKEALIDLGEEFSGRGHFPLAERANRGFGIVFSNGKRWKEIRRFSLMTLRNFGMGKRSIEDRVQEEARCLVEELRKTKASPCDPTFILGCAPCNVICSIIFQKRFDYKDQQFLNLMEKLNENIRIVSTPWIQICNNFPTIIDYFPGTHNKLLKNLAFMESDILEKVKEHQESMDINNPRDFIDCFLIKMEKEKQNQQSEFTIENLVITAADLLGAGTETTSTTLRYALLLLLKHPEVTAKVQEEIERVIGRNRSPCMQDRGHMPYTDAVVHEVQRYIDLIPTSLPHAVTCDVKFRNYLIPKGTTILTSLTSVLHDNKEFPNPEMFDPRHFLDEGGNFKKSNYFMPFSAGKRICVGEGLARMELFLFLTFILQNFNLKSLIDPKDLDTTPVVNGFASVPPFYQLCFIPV

Q: Which “Inhibition of CYP1A2, IC50” value (CYP1A2; [1]) does the source give for COC(=O)c1cc2c(cc1OC)CC(N)C2 (centres unmarked) [CMP-401] here?
A: The value was “displayed inhibitory activity at CYP1A2”.

Q: And the IC50 (CYP1A2; [2])?
A: Its IC50 is 1.21 µM.

Q: What about the IC50 (CYP2C19; [3]) of the same molecule?
A: Its IC50 is > 50 µM.

Q: What about the IC50 (CYP2C9; [4]) of the same molecule?
A: Its IC50 is > 50 µM.

Q: COC(=O)COc1ccc2c(c1)CC(N)C2 (centres unmarked) [CMP-402] was tested. Which “Inhibition of CYP1A2, IC50” value (CYP1A2; [1]) did it give?
A: Its value is “displayed inhibitory activity at CYP1A2”.

Q: And the IC50 (CYP1A2; [2])?
A: Its IC50 is 1.07 µM.

Q: And the IC50 (CYP2C19; [3])?
A: The IC50 was > 50 µM.

Q: What about the IC50 (CYP2C9; [4]) of the same molecule?
A: Its IC50 is > 50 µM.

Q: Which results are given for COC(=O)c1ccc2c(c1)CC(N)C2 (centres unmarked) [CMP-405, 2-aminoindane-5-methylcarboxylate]?
A: Inhibition of CYP1A2, IC50 (CYP1A2; [1]): displayed inhibitory activity at CYP1A2; IC50 (CYP1A2; [2]): 0.61 µM; IC50 (CYP2C19; [3]): > 50 µM; IC50 (CYP2C9; [4]): > 50 µM

Q: CNC(C)Cc1ccc2c(c1)OCO2 (centres unmarked) [MDMA] was tested. Which IC50 (CYP1A2; [2]) did it give?
A: Its IC50 is > 50 µM.

Q: What about the IC50 (CYP2C19; [3]) of the same molecule?
A: The IC50 was > 50 µM.

Q: And the IC50 (CYP2C9; [4])?
A: The IC50 was > 50 µM.

Q: COc1ccc2c(c1)CC(N)C2 (centres unmarked) [MEAI, 5-methoxy-2-aminoindane] was tested. Which IC50 (CYP1A2) did it give?
A: Its IC50 is > 50 µM.

Q: What about the IC50 (CYP2C19) of the same molecule?
A: The IC50 was > 50 µM.

Q: What about the IC50 (CYP2C9) of the same molecule?
A: The IC50 was > 50 µM.

Q: How did the IC50 (CYP1A2) turn out when COc1cc2c(cc1C)CC(N)C2 (centres unmarked) [MMAI, 5-methoxy-6-methyl-2-aminoindane] was run?
A: Its IC50 is 2.11 µM.

Q: And the “Inhibition of CYP1A2, IC50” value (CYP1A2; [1])?
A: The value was “displayed inhibitory activity at CYP1A2”.

Q: And the IC50 (CYP2C19)?
A: The IC50 was > 50 µM.

Q: What about the IC50 (CYP2C9) of the same molecule?
A: Its IC50 is 35.7 µM.

Q: What about the “Inhibition of CYP2C9, IC50” value (CYP2C9; [1]) of the same molecule?
A: Its value is “found to inhibit CYP2C9”.
